The values below come from ChEMBL document CHEMBL5137030 (Eur J Med Chem, 2022).

Molecules are shown by their SMILES. Active and inactive are the calls of the source. The calls are words filed in the database; no cut-off is given here.

Series [1] deals with Human alphaherpesvirus 2. As to the kind of experiment: Antiviral activity against HSV-2 333vhsB infected in African green monkey Vero cells assessed as inhibition of viral replication by measuring reduction in virus-induced cytopathic effect at 50 uM incubated for 20 hrs by colorimetric analysis. Type of series: functional, organism-based. A general note: Cytopathic effects are the visible damage that an infection or toxin causes in cultured cells.

Series [2] relates to Human alphaherpesvirus 1. Put plainly: Antiviral activity against HSV-1 infected in African green monkey Vero cells assessed as inhibition of viral replication by measuring log suppression of virus-induced cytopathic effect at 5 uM incubated for 1 hr followed by washing with PBS and subsequent treatment with compound for 24 hrs by plaque assay. Type of series: functional. Particulars: time 25 hrs.

A short description of series [3]: Oral bioavailability in BALB/c mouse at 3 mg/kg by LC/MS/MS analysis. Type of series: ADME, organism-based. The following applies: in vivo.
The subject of series [4] is Human alphaherpesvirus 2. Put plainly: Antiviral activity against HSV-2 infected in African green monkey Vero cells assessed as inhibition of viral replication incubated for 1 hr followed by washing with PBS and subsequent treatment with compound for 24 hrs by plaque reduction assay. Type of series: functional, organism-based. The following applies: Human alphaherpesvirus 2, Vero. A general note: Plaque reduction counts the foci of infection that form in a cell layer.

Series [5] has as its system Human alphaherpesvirus 1. As to the kind of experiment: Antiviral activity against HSV-1 infected in African green monkey Vero cells assessed as inhibition of viral replication by measuring log suppression of virus-induced cytopathic effect at 1 uM incubated for 1 hr followed by washing with PBS and subsequent treatment with compound for 24 hrs by plaque assay. Type of series: functional. Particulars: time 25 hrs.

Series [6] in a line: Half-life in BALB/c mouse at 3 mg/kg, po and 1 mg/kg, iv by LC/MS/MS analysis. Type of series: ADME, organism-based. Particulars: in vivo.
The nature of series [7]: Apparent permeability of the compound across apical to basolateral side in human Caco-2 cells at 10 uM incubated for 2 hrs. Particulars: caco-2, 2 h. Type of series: ADME, cell-based. On the technique in general: Passage across Caco-2 layers is used to estimate intestinal permeability.
In series [8] the test system is Human alphaherpesvirus 2. As to the kind of experiment: Antiviral activity against HSV-2 infected in African green monkey Vero cells assessed as inhibition of viral replication by measuring log suppression of virus-induced cytopathic effect at 5 uM incubated for 1 hr followed by washing with PBS and subsequent treatment with compound for 24 hrs by plaque assay. Type of series: functional. Particulars: time 25 hrs.

Series [9] is described as follows: Cytotoxicity against human HepDES19 cells assessed as reduction in cell viability incubated for 72 hrs by MTS assay. Type of series: toxicity, cell-based. The following applies: hepdes19, 72 h.
Series [10] relates to Human alphaherpesvirus 2. As to the kind of experiment: Antiviral activity against HSV-2 infected in African green monkey Vero cells assessed as inhibition of viral replication by measuring log suppression of virus-induced cytopathic effect at 1 uM incubated for 1 hr followed by washing with PBS and subsequent treatment with compound for 24 hrs by plaque assay. Type of series: functional. Particulars: time 25 hrs.

The nature of series [11]: Half life in human liver microsomes at 2 uM in presence of NADPH by LC/MS/MS analysis. Type of series: ADME, Microsome.
Series [12] has as its system Human alphaherpesvirus 2. As to the kind of experiment: Antiviral activity against wild-type HSV-2 186 infected in African green monkey Vero cells assessed as inhibition of viral replication incubated for 1 hr followed by washing with PBS and subsequent treatment with compound for 24 hrs by plaque reduction assay. Type of series: functional, organism-based. The following applies: Human alphaherpesvirus 2, 186, Vero.

The subject of series [13] is Human alphaherpesvirus 2. Put plainly: Antiviral activity against thymidine kinase-deficient ACV-resistant HSV-2 186 TKdeltakpn infected in African green monkey Vero cells assessed as inhibition of viral replication incubated for 1 hr followed by washing with PBS and subsequent treatment with compound for 24 hrs by plaque reduction assay. Type of series: functional, organism-based. Particulars: Human alphaherpesvirus 2, 186 TKdeltakpn.

A short description of series [14]: Half life in mouse liver microsomes at 2 uM in presence of NADPH by LC/MS/MS analysis. Type of series: ADME, Microsome.
The test system of series [15] is Human alphaherpesvirus 1. Put plainly: Antiviral activity against HSV-1 infected in African green monkey Vero cells assessed as inhibition of viral replication incubated for 1 hr followed by washing with PBS and subsequent treatment with compound for 24 hrs by plaque reduction assay. The following applies: Human alphaherpesvirus 1, Vero. Type of series: functional, organism-based.

Series [16] has as its system Vero. As to the kind of experiment: Cytotoxicity against African green monkey Vero cells assessed as reduction in cell viability incubated for 24 hrs by MTS assay. The following applies: chlorocebus sabaeus.

As a reminder, the bioavailability is dose-corrected exposure relative to a reference, in per cent. One may read the EC50 as the concentration at which the effect is half-maximal. In general, CC50 refers to the concentration at which the toxic effect on the cells reaches its halfway point. In the case of `O=c1cc(-c2ccccc2)cc(C2CCCCC2)n1O`, in [1], the outcome was Active. In addition, the “log(activity)” value came out at 5.37 in series [2], 3.43 in series [5], 4.08 in series [8] and 3.73 in series [10]. Further, the bioavailability in [3] stood at 10%. Also, the EC50 in [4] was 290 nM; in series [12], less than 300 nM; in [13], less than 300 nM. Further, the t1/2 in [6] was less than 60 min; in series [11] it was less than 5 min; in series [14], less than 5 min. The Papp in series [7] is reported as 4.33 10^-6 cm/s. Also, the CC50 in [9] amounted to 20000 nM.

Regarding `Cc1cc(Cc2ccc(Cl)cc2)n(O)c(=O)c1`, the result in series [1] was Active. Moreover, the “log(activity)” value in [2] came out at 4.27; in [5], 2.44; in [8], 4.4; in series [10], 3.16. In series [3], this molecule had a bioavailability of 10%. Further, the EC50 was 310 nM in series [4] and 160 nM in series [15]. The molecule further registered a t1/2 in series [6] of less than 60 min. In addition, the CC50 in [9] was 26000 nM.

For `Cc1cc(C2CCCCC2)n(O)c(=O)c1` [CICLOPIROX], the “log(activity)” value in [2] turned out to be 4.62; in series [5], 1.66; in [8] it was 5.5; in series [10], 2.6. For the same molecule, the 50% effective concentration (EC50) was 500 nM in [4], 270 nM in series [15], less than 300 nM in [12] and less than 300 nM in [13]. Moreover, the values for the cytotoxic concentration (CC50) in series [9] and in series [16] were 13000 nM and more than 100000 nM, respectively.

Take `Cc1cc(Cc2cccc3ccccc23)n(O)c(=O)c1`: in series [1], the outcome was Active. Besides, the “log(activity)” value in series [2] was found to be 4.81; in series [5], 2.99; in series [8] it was 4.33; in series [10] it was 3.12. In series [3], this molecule showed a bioavailability of 10%. In addition, the figures for the EC50 in [4], in series [12] and in [13] were 220 nM, less than 300 nM and less than 300 nM, respectively. The t1/2 in series [6] was less than 60 min; in [11] it was less than 5 min; in series [14], less than 5 min. Besides, the Papp in series [7] is recorded as 6.46 10^-6 cm/s. In addition, the CC50 in [9] is 25000 nM; in series [16], 93100 nM.

In the case of `Cc1cc(Cc2ccc(-c3ccccc3)cc2)n(O)c(=O)c1`, the result in [1] was Active. Also, the “log(activity)” value turned out to be 4.74 in series [2], 4.37 in series [5], 4.6 in series [8] and 3.09 in series [10]. Moreover, in series [3], the bioavailability stood at 10%. Also, the EC50 in [4] is 140 nM; in [15], 210 nM; in series [12] it was less than 300 nM; in series [13], less than 300 nM. Besides, the results for the t1/2 in series [6], in series [11] and in series [14] were less than 60 min, less than 5 min and less than 5 min, respectively. Further, the Papp in series [7] is recorded as 1.35 10^-6 cm/s. In addition, in series [9], the CC50 amounted to 12000 nM.

Consider `COc1cccc(Cc2cc(C)cc(=O)n2O)c1`, for which, in [1], the outcome was Active. The EC50 in [4] stood at 270 nM. Further, the Papp in [7] was 2.43 10^-7 cm/s. Moreover, the entries for the “log(activity)” value in series [8] and in series [10] were 4.57 and 2.15, respectively. The figures for the CC50 in [9] and in [16] were 60000 nM and more than 100000 nM, respectively. In addition, the t1/2 in series [11] was found to be 19 min; in [14], 15 min.

Regarding `Cc1cc(Cc2ccccc2)n(O)c(=O)c1`, in series [1], the result was Active. Moreover, the “log(activity)” value in series [2] was 4.71; in [5], 1.07; in series [8] it was 5.79; in series [10], 1.59. Further, the EC50 in series [4] was 230 nM. For the same molecule, in series [7], the Papp was 1.44 10^-5cm/s. The cytotoxic concentration (CC50) in series [9] is 42000 nM; in series [16], more than 100000 nM. Further, the t1/2 is listed as 6 min in [11] and less than 5 min in series [14].

Regarding `Cc1cc(CC2CCCCC2)n(O)c(=O)c1`, the outcome in [1] was Active. Further, the “log(activity)” value was determined as 4.43 in series [2], 3.98 in series [5], 4.9 in [8] and 4.19 in [10]. For the same molecule, the bioavailability in [3] came out at 10%. The EC50 in series [4] is 260 nM. The t1/2 was less than 60 min in [6], less than 5 min in series [11] and less than 5 min in series [14]. The Papp in [7] is 3.14 10^-5cm/s. Further, the CC50 in series [9] turned out to be 28000 nM.
